Results taken from ChEMBL document CHEMBL1201862, “PubChem BioAssay data set” (2004).
Where “and” joins values, the source holds several entries; their conditions need not be identical. Identical values can stand only once.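 Step 1: Grow cells in 96-well plates. Step 2: Expose to compound for 48 hours at 5 concentrations. Step 3: Interpolate endpoints linearly; if unreached, use highest concentration. GI50: concentration for 50% inhibition of growth.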 Calls of active or inactive are those of the source. Rule as the data show it: active = GI50 up to about 1.1 µM and inactive = higher.

Key:
Experiment in all cases: DTP human tumour cell line panel, 48 h
786-0 = test system: 786-0
CCRF-CEM = test system: CCRF-CEM
DU-145 = test system: DU-145
HCC 2998 = test system: HCC 2998
HT-29 = test system: HT-29
Hs-578T = test system: Hs-578T
IGROV-1 = test system: IGROV-1
MCF7 = test system: MCF7
MDA-MB-435 = test system: MDA-MB-435
MDA-N = test system: MDA-N
Malme-3M = test system: Malme-3M
OVCAR-3 = test system: OVCAR-3
OVCAR-5 = test system: OVCAR-5
SF-295 = test system: SF-295
SF-539 = test system: SF-539
SK-MEL-2 = test system: SK-MEL-2
SK-MEL-5 = test system: SK-MEL-5
U-251 = test system: U-251
UACC-257 = test system: UACC-257
BT-549 = test system: BT-549

| Structure (SMILES) | GI50 (786-0) | GI50 (CCRF-CEM) | GI50 (DU-145) | GI50 (HCC 2998) | GI50 (HT-29) | GI50 (Hs-578T) | GI50 (IGROV-1) | GI50 (MCF7) | GI50 (MDA-MB-435) | GI50 (MDA-N) | GI50 (Malme-3M) | GI50 (OVCAR-3) | GI50 (OVCAR-5) | GI50 (SF-295) | GI50 (SF-539) | GI50 (SK-MEL-2) | GI50 (SK-MEL-5) | GI50 (U-251) | GI50 (UACC-257) | GI50 (BT-549) |
| --- | --- | --- | --- | --- | --- | --- | --- | --- | --- | --- | --- | --- | --- | --- | --- | --- | --- | --- | --- | --- |
| COc1c(O)c(OC)c(C(=O)/C=C/c2ccccc2)c(O)c1OC [PEDICIN] | 32.4 µM (inactive) | 94.6 µM (inactive) | 29.1 µM (inactive) | 68.1 µM (inactive) | 32.6 µM (inactive) | 30.5 µM (inactive) | 21.3 µM (inactive) | 26.9 µM (inactive) | 27.9 µM (inactive) | 20.9 µM (inactive) | 22.8 µM (inactive) | 22.2 µM (inactive) | 58.9 µM (inactive) | 35.6 µM (inactive) | 30.5 µM (inactive) | 24.9 µM (inactive) | 20.4 µM (inactive) | 31.9 µM (inactive) | > 100 µM (inactive) | – |
| CC1=C2C(=O)c3ccccc3C(=O)[C@H]2C[C@@H](N2CCCCCC2=O)O1 | 18.4 µM (inactive) | 3.44 µM (inactive) | 18.3 µM (inactive) | 16.7 µM (inactive) | 27 µM (inactive) | 30.5 µM (inactive) | 16.4 µM (inactive) | – | 16 µM (inactive) | 16 µM (inactive) | 12.9 µM (inactive) | 18 µM (inactive) | 16.7 µM (inactive) | 18.8 µM (inactive) | 19 µM (inactive) | 23.1 µM (inactive) | 16.1 µM (inactive) | 23.8 µM (inactive) | 17.4 µM (inactive) | – |
| CN1Cc2cc3cc4c(cc3nc2N(C)C1)OCCO4 | > 100 µM (inactive) | > 100 µM (inactive) | – | > 100 µM (inactive) | > 100 µM (inactive) | – | > 100 µM (inactive) | > 100 µM (inactive) | > 100 µM (inactive) | > 100 µM (inactive) | > 100 µM (inactive) | – | > 100 µM (inactive) | > 100 µM (inactive) | > 100 µM (inactive) | > 100 µM (inactive) | > 100 µM (inactive) | > 100 µM (inactive) | > 100 µM (inactive) | > 100 µM (inactive) |
| O/N=N/c1ccc(-c2ccccc2)cn1 | 6.38 µM (inactive) | 2.2 µM (inactive) | 2.22 µM (inactive) | 16.9 µM (inactive) | 20.6 µM (inactive) | 23.8 µM (inactive) | 27.7 µM (inactive) | 1.44 µM (inactive) | 14.7 µM (inactive) | – | 11.5 µM (inactive) | 20.2 µM (inactive) | 20.3 µM (inactive) | 8.13 µM (inactive) | 17.4 µM (inactive) | 31.6 µM (inactive) | 11.9 µM (inactive) | 15.7 µM (inactive) | 43.9 µM (inactive) | 30.7 µM (inactive) |
| CC(=O)O/N=C1\C=Cc2c(no[n+]2[O-])C1=O | 19.3 µM (inactive) | 3.65 µM (inactive) | 17.9 µM (inactive) | 22.1 µM (inactive) | 17.5 µM (inactive) | 20.8 µM (inactive) | 16.4 µM (inactive) | 22.5 µM (inactive) | 20.6 µM (inactive) | 17.6 µM (inactive) | 14.7 µM (inactive) | 16.2 µM (inactive) | 18.3 µM (inactive) | > 100 µM (inactive) | 17.3 µM (inactive) | 17.8 µM (inactive) | 17.5 µM (inactive) | – | 18.2 µM (inactive) | – |
| O=C(CC(C(=O)c1ccco1)c1ccco1)c1ccco1 (stereo unspecified) | > 100 µM (inactive) | 71.1 µM (inactive) | > 100 µM (inactive) | > 100 µM (inactive) | > 100 µM (inactive) | > 100 µM (inactive) | > 100 µM (inactive) | > 100 µM (inactive) | > 100 µM (inactive) | > 100 µM (inactive) | – | > 100 µM (inactive) | > 100 µM (inactive) | > 100 µM (inactive) | > 100 µM (inactive) | – | > 100 µM (inactive) | > 100 µM (inactive) | > 100 µM (inactive) | – |
| O=C(O)c1cccc(/C=C/c2ccccc2)c1 | > 100 µM (inactive) | > 100 µM (inactive) | 3.08 µM (inactive) | – | > 100 µM (inactive) | > 100 µM (inactive) | > 100 µM (inactive) | > 100 µM (inactive) | > 100 µM (inactive) | – | 72.6 µM (inactive) | > 100 µM (inactive) | > 100 µM (inactive) | > 100 µM (inactive) | > 100 µM (inactive) | > 100 µM (inactive) | > 100 µM (inactive) | > 100 µM (inactive) | > 100 µM (inactive) | > 100 µM (inactive) |
| Cc1ccc(S(=O)(=O)Nn2c(-c3ccccc3)c(C#N)c(-c3ccc(Cl)cc3)c(C#N)c2=O)cc1 | 6.79 µM (inactive) | 20.4 µM (inactive) | – | 23.7 µM (inactive) | – | – | – | 19.4 µM (inactive) | 33.3 µM (inactive) | 28.4 µM (inactive) | – | – | 47 µM (inactive) | 26.8 µM (inactive) | 21.1 µM (inactive) | 20.2 µM (inactive) | 15.2 µM (inactive) | 21.5 µM (inactive) | 32.8 µM (inactive) | 18.5 µM (inactive) |
| S=C(N/N=C\C=N/NC(=S)N1CCCCC1)N1CCCCC1 | 0.525 µM (active) | – | 0.202 µM (active) | – | 0.163 µM (active) | 0.879 µM (active) | 0.664 µM (active) | 0.466 µM (active) | 1.01 µM (active) | > 26.1 µM (inactive) | 0.321 µM (active) | 0.251 µM (active) | > 29.3 µM (inactive) | 0.155 µM (active) | 0.435 µM (active) | – | 0.37 µM (active) | 0.207 µM (active) | 1.25 µM (inactive) | – |
| CC1=NN(c2nc(N)nc(-c3ccccc3S(N)(=O)=O)n2)C(C)(C)C1 | 8.79 µM (inactive) | 9.42 µM (inactive) | 7.38 µM (inactive) | 13.8 µM (inactive) | 12.1 µM (inactive) | 74.1 µM (inactive) | 22.6 µM (inactive) | 22.7 µM (inactive) | 37.8 µM (inactive) | 26.6 µM (inactive) | – | 16.3 µM (inactive) | 27.2 µM (inactive) | 5.64 µM (inactive) | 27.4 µM (inactive) | 9.2 µM (inactive) | 18.1 µM (inactive) | 8.51 µM (inactive) | 30.2 µM (inactive) | – |
| Nc1ncnc2c1ncn2C1CC(O)C(CO)O1 (stereo unspecified) | > 100 µM (inactive) | > 100 µM (inactive) and 70.5 µM (inactive) | > 100 µM (inactive) | > 100 µM (inactive) | > 100 µM (inactive) | – | > 100 µM (inactive) | > 100 µM (inactive) | > 100 µM (inactive) | > 100 µM (inactive) | > 100 µM (inactive) | > 100 µM (inactive) | > 100 µM (inactive) | > 100 µM (inactive) | > 100 µM (inactive) | > 100 µM (inactive) | > 100 µM (inactive) | > 100 µM (inactive) | > 100 µM (inactive) | – |
| CSc1nc(Cl)c(Br)c(Sc2nc(N)nc3nc[nH]c23)n1 | 3.27 µM (inactive) | 2.77 µM (inactive) | – | 3.79 µM (inactive) | 9.86 µM (inactive) | – | 13.5 µM (inactive) | – | – | – | 13.4 µM (inactive) | 15.2 µM (inactive) | 11.8 µM (inactive) | 4.72 µM (inactive) | 2.81 µM (inactive) | 4.78 µM (inactive) | 12.5 µM (inactive) | 4.48 µM (inactive) | 13.9 µM (inactive) | – |
